“Also recorded” adds a separate entry of the source.
How the values were obtained:
U-251 MG = assay: Cytotoxicity, MTT test; format: cell-based; conditions: Homo sapiens, 72 h of exposure
Description: (§1) Cell culture. A-172 (human glioblastoma cells), HepG2 (human hepatocellular carcinoma cells), M-HeLa (human cervical adenocarcinoma cells, M subclone), Vero (African green monkey kidney epithelial cells), and FetMSC (human embryonic mesenchymal stem cells) were purchased from the Russian Collection of Cell Cultures of Vertebrates (Institute of Cytology RAS, St. Petersburg, Russia). The U-251 MG cell line (human glioblastoma-astrocytoma) was purchased from the European Collection of Authenticated Cell Cultures (Salisbury, UK). All cells were grown at 37 °C in an atmosphere of 5% CO2. A-172 and Vero cells were cultured in DMEM medium (PanEco, Moscow, Russia). HepG2, HeLa, and U-251 MG cells were cultured in EMEM medium (PanEco). FetMSC cells were cultured in F12/DMEM medium (PanEco). All incubation media were supplemented with 10% fetal calf serum (BioWest, Nuaillé, France), 50 U/mL penicillin, and […] streptomycin (PanEco). Additionally, media for HeLa, HepG2, and U-251 MG cells were supplemented with 2 mM glutamine (PanEco) and 1% essential amino acids (PanEco), media for A-172 and Vero cells were supplemented with 4 mM glutamine, and the medium for FetMSC cells was supplemented with 3 mM glutamine. The medium for U-251 MG cells was additionally supplemented with 1 mM sodium pyruvate (PanEco).
(§2) Cytotoxicity studies. The cytotoxicity of the compounds was assessed using the MTT test. Cells were seeded into 96-well plates at varying concentrations of 5 × 10^4 cells/mL (A-172, Vero and HeLa), 7 × 10^4 cells/mL (HepG2 and U-251 MG), and 10 × 10^4 cells/mL (FetMSC). The studied compounds were added to the incubation medium 24 h after seeding at concentrations ranging from 7.8 μM to 500 μM. All compounds were dissolved in DMSO and diluted with the incubation medium to their final concentrations just before use. The incubation medium in wells was aspirated and replaced with medium containing the studied compounds. The final concentration of DMSO in all samples was 0.1%. Control samples were treated with 0.1% DMSO. After 72 h of exposure, 3-(4,5-dimethylthiazol-2-yl)-2,5-diphenyl-2H-tetrazolium bromide (MTT) (Dia-M, Moscow, Russia) was added to the incubation medium at a concentration of 0.5 mg/mL. The resulting MTT-formazan crystals were dissolved in DMSO. The optical density was measured at 570 nm with a background wavelength of 620 nm using a Spark 10M plate reader. IC50 values were determined using a median effect analysis from the dose–effect relationships.

B16 melanoma [1] = assay: Antitumor activity in vivo, tumor growth; design: species or system mouse; conditions: BDF1 mice, i.p., CP 100 mg/kg days 2, 7, cPt 4 mg/kg days 2–9, 4 300 mg/kg days 2–9
Description: (§3) Antitumor activity in vivo. The B16 mouse melanoma was used as a tumor model. The B16 melanoma tumor strain was induced in male BDF1 mice by subcutaneous inoculation of 0.2–0.5 mL of a suspension of tumor tissue in medium 199 at intervals of 12–16 days. For the experiments, BDF1 mice were inoculated with 0.3 mL of a suspension of tumor tissue diluted in a 0.9% NaCl solution at a ratio of 1:5 subcutaneously on the right side.
(§4) Compound 4 was dissolved in a 0.9% NaCl solution with 1% DMSO. […] Control animals were injected intraperitoneally with 1% DMSO in saline (0.9% NaCl) in the same volumes as the test compounds.
Tumor growth was monitored on days 0, 6, 8, 10, 13, 15, 17, and 20 by measuring the tumor size with a digital caliper. The mean tumor diameter was calculated using the formula:D = 3√a × b × c,(2) where a, b, and c are mutually perpendicular tumor diameters.

B16 melanoma [2] = assay: Antimetastatic activity in vivo, lung metastases; design: species or system mouse
Description: as §3, §4
And MNMcont. are the mean number of metastases in the experimental and control groups, respectively.

[3] = Cytotoxicity, MTT test, statements on all cell lines studied; format: cell-based; conditions: human, African green monkey, 72 h of exposure, summary over cell lines, read-out: cytotoxicity IC50, cells in general
Description: as §1, §2

BDF1 mice = assay: Acute toxicity in vivo
Description: Acute toxicity. Experiments involving animals were conducted at the Unique Scientific Unit “Nursery and Vivarium of the FRC PCP MC RAS” in accordance with the rules established by the Commission on Bioethics of the FRC PCP MC RAS (protocol No. 7/22 dated 20 June 2022) and the European Convention for the Protection of Vertebrate Animals for experimental and scientific purposes. Clinically healthy BDF1 hybrid males weighing 20–22 g were utilized. The mice were housed in a conventional vivarium with a 12 h light regime and provided with free access to water and food. Each experimental group consisted of six animals. Compound 4 was dissolved in DMSO and then diluted with 0.9% NaCl to reduce the DMSO concentration to 10%. The solution was administered intraperitoneally at single doses ranging from 200 mg/kg to 1000 mg/kg. The control group received 10% DMSO in 0.9% NaCl intraperitoneally. The animals were monitored daily for 14 days, with attention given to their overall condition, activity, and appetite. At the end of the experiment, all animals were euthanized by inhalation of ether, followed by a pathoanatomical autopsy.

Vero = assay: Cytotoxicity, MTT test; format: cell-based, African green monkey; conditions: Chlorocebus sabaeus, Vero, 72 h of exposure
Description: as §1, §2

[4] = lungs, B16 melanoma, BDF1 mice, doses as in Table 5

Q: Which IC50 (U-251 MG) does the source give for `O=C(CCC(=O)Nc1ccc(I)cc1)NO` [Compound 4, N^1-hydroxy-N^4-(4-iodophenyl)butanediamide] here?
A: 401 ± 21.1 µM

Q: And the “Tumor Growth Inhibition, % Day 10” value (B16 melanoma [1])?
A: 34.5%

Q: What about the “Tumor Growth Inhibition, % Day 13” value (B16 melanoma [1]) of the same compound?
A: 61.5%

Q: What about the “Tumor Growth Inhibition, % Day 15” value (B16 melanoma [1]) of the same compound?
A: 50.4%

Q: What about the “Tumor Growth Inhibition, % Day 17” value (B16 melanoma [1]) of the same compound?
A: 44.6%

Q: What about the “Tumor Growth Inhibition, % Day 20” value (B16 melanoma [1]) of the same compound?
A: 42.3%

Q: And the “reduction of the number of animals with metastases in the group” value (B16 melanoma [2]; 300 mg/kg i.p. days 2–9)?
A: 50%

Q: And the “% Inhibition of Metastases” value (B16 melanoma [2]; [4])?
A: 88.6%

Q: What about the “Mean Number of Metastases per Mouse” value (B16 melanoma [2]; [4]) of the same compound?
A: 1.3 ± 0.9

Q: And the “Metastasis Rate, %” value (B16 melanoma [2]; [4])?
A: 50%

Q: What about the “Number of Animals without Metastases” value (B16 melanoma [2]; of 6 animals in the group, lungs, B16 melanoma, BDF1 mice, doses as in Table 5) of the same compound?
A: 3

Q: And the IC50 at 72 h [3]?
A: > 100 µM

Q: And the toxicity classification (BDF1 mice; intraperitoneally, doses up to 1000 mg/kg, classification of [48])?
A: slightly toxic

Q: What about the body weight change (BDF1 mice; single i.p. dose 300 mg/kg or lower, 300 mg/kg) of the same compound?
A: stable increase in body weight; also recorded: did not impact weight gain

Q: What about the body weight change (BDF1 mice; single i.p. dose 400 mg/kg) of the same compound?
A: slower weight gain

Q: What about the body weight change (BDF1 mice; single i.p. dose 1000 mg/kg, within 7 days, partial recovery on day 14) of the same compound?
A: slight decrease in body weight

Q: What about the body weight change (BDF1 mice; single i.p. doses 600 mg/kg and 800 mg/kg, entire observation period) of the same compound?
A: No significant changes in body weight

Q: And the IC50 (Vero)?
A: > 500 µM
